These results are taken from publication doi:10.1101/2021.01.22.427858v1 (biorxiv, 2021).

Molecules are shown by their SMILES.

Broadly, the Kd is the constant that tells how readily two partners part at equilibrium. Read a high Kd as lower affinity.

For the first assay, the target named is T1, Human Serum Albumin (HSA) (Homo sapiens, UniProt P02768). Briefly: biochemical. Format: binding.
T1 sequence (P02768 25-609): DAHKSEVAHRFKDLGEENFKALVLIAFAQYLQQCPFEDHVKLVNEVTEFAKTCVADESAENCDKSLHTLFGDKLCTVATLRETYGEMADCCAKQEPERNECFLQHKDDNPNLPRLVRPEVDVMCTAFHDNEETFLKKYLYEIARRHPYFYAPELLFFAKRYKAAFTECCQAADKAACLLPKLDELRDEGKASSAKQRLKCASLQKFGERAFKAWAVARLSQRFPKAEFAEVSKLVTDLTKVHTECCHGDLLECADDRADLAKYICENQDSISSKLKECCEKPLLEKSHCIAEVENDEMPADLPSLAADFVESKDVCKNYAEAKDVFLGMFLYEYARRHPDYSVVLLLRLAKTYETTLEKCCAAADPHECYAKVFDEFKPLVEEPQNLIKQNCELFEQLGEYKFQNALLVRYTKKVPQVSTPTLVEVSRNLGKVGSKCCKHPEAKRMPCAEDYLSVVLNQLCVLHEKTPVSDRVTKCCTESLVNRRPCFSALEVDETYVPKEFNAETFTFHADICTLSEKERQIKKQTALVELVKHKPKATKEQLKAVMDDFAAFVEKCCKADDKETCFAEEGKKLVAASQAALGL
Settings: not given
For `Cc1c(C2(c3cc(Br)c(O)c(Br)c3C)OS(=O)(=O)c3ccccc32)cc(Br)c(O)c1Br` [Bromocresol Green], binding was put at a Kd of 3.31 ± 1.7 µM.
Same read-out and setting: for `O=C1OC2(c3ccc(O)cc3Oc3cc(O)ccc32)c2ccccc21` [Fluorescein] the value was 3.31 ± 1.7 µM.

The target in a further assay is T1, Human Serum Albumin (HSA). Briefly: differential scanning calorimetry. Type of assay: binding.
Settings: not given
Background: DSC measures the heat that a sample takes up or gives off during a temperature scan.
As for `CN(C)C(=N)NC(=N)N` [Metformin], the KD1 was 2.01 ± 0.43 10^-6 M.

Another assay concerns the target T1, Human Serum Albumin (HSA).
Assay: not given
The note with it: binder.
On to `Cc1c(C2(c3cc(Br)c(O)c(Br)c3C)OS(=O)(=O)c3ccccc32)cc(Br)c(O)c1Br` [Bromocresol Green], for which the “dTm (C)” value is 6.29 °C.
On the same count and under the same terms, for `C[C@H]1O[C@@H](O[C@H]2[C@@H](O)C[C@H](O[C@H]3[C@@H](O)C[C@H](O[C@H]4CC[C@@]5(C)[C@H](CC[C@@H]6[C@@H]5CC[C@]5(C)[C@@H](C7=CC(=O)OC7)CC[C@]65O)C4)O[C@@H]3C)O[C@@H]2C)C[C@H](O)[C@@H]1O` [Digitoxin] the value was 3.92 °C; for `COc1ccc2cc([C@H](C)C(=O)O)ccc2c1` [Naproxen], 5.52 °C.

The same assay, now with this note: ligand concentration not given; binder.
Turning to `C=CC1=C(C)/C(=C/c2[nH]c(Cc3[nH]c(/C=C4\NC(=O)C(C)=C4C=C)c(C)c3CCC(=O)O)c(CCC(=O)O)c2C)NC1=O` [Bilirubin], the “dTm (C)” value was 0.30 °C.
Still for that read-out and setting: for `CC(NC(C)(C)C)C(=O)c1cccc(Cl)c1` (stereo not drawn) [Buproprion] the value was 0.62 °C; for `Cn1c(=O)c2c(ncn2C)n(C)c1=O` [Caffeine], 0.47 °C; for `C[C@H](CS)C(=O)N1CCC[C@H]1C(=O)O` [Captopril], -0.41 °C.
Consider `CCN(CC)CCCC(C)Nc1ccnc2cc(Cl)ccc12` (stereo not drawn) [Chloroquine], for which the “dTm (C)” value came out at 1.43 °C.
On to `CCCCCCCCCC(=O)O` [Decanoic Acid], for which the “dTm (C)” value was determined as 24.56 °C.
On the same count and under the same terms, under `O=C1OC2(c3ccc(O)cc3Oc3cc(O)ccc32)c2ccccc21` [Fluorescein] stands 7.95 °C; under `CN(C)C(=N)NC(=N)N` [Metformin], -0.31 °C.
On the same count and under the same terms, for `COCCc1ccc(OCC(O)CNC(C)C)cc1` (stereo not drawn) [Metoprolol] the value was -0.40 °C.
Same read-out and setting: for `CCCCNc1ccc(C(=O)OCCN(C)C)cc1` [Tetracaine] the value was 3.16 °C; for `C[C@]12CC[C@@H]3c4ccc(O)cc4CC[C@H]3[C@@H]1CC[C@@H]2O` [β-Estradiol], 0.92 °C.

The target in another assay is T1, Human Serum Albumin (HSA). As to the kind of experiment: differential scanning calorimetry, bi-dose-response fit.
Settings: not given
Regarding `C[CH2][Hg][S]c1ccccc1C(=O)O` [Thimerosal], the KD1 is recorded as 3.13 ± 0.43 10^-6 M.
